This is an account of results in US12435059B2, “AMP-activated protein kinase inhibitors and methods of making and using the same” (The Regents of the University of Colorado, priority 2019, dated 2025).

The target of assay [1] is AMPKα1 (Homo sapiens (Human), UniProt Q13131). As to the kind of experiment: LANCE Eu TR-FRET recombinant kinase assay, AMPK(α1). The assay is classed as biochemical. The protocol:
(§1) Assays were performed at 25° C. in a reaction mixture consisting of 2.5 μL serially diluted inhibitor solution, 2.5 μL kinase, 2.5 μL ATP and 2.5 μL substrate. Reagents were incubated for 1 hr before the reaction was halted through the addition of EDTA (10 mM) after which Eu anti-phospho-CREB (Ser133) antibody (PerkinElmer) was added at a final concentration of 2 nM for 1 hr. […] (n=3)).
On the technique in general: TR-FRET usually uses a lanthanide donor and a delayed reading to cut background.

Assay [2] concerns the target AMPK(α2) (Homo sapiens (Human), UniProt P54646). As to the kind of experiment: LANCE Eu TR-FRET recombinant kinase assay, AMPK(α2). The assay is classed as biochemical. Particulars: mean±S.D. (n=3); ATP 20 μM. Here is the method:
as §1

Assay [3] addresses KDR (Homo sapiens (Human), UniProt P35968). Kind of assay: LanthaScreen Eu TR-FRET KDR competitive binding assay.
Assay [4] relates to K562 cells. As to the kind of experiment: CellTox green cellular toxicity assay in K562 cells (glucose-free media). The format is cell-based. Particulars: Homo sapiens. An excerpt: Fluorescence was plotted against inhibitor log-dose and evaluated by a non-linear regression to determine half-maximal effect concentration (EC50) values, where possible.
(§2) In order to increase the reliance of the cells on AMPK function, assays were needed that could be performed under glucose-free conditions. Therefore in order to elucidate the mechanism of action of the AMPK inhibitors, a CellTiter-Glo cell viability assay (FIG. 3B), which provide a readout proportional to ATP concentration, and thus, cellular viability, as well as a CellTox green cellular toxicity assay (FIG. 3C and FIG. 3D), which contain a dye that fluoresces upon DNA-binding in cells with impraied membrane integrity due to cytotoxicity were performed in K562 cells grown in glucose-free media. The results are summarized in Table 2 (values are the mean±S.D. (n=3)).

Assay [5] relates to K562 cells. As to the kind of experiment: MTS cell viability assay in K562 cells. The format is cell-based. To be noted: Homo sapiens; K562, RPMI-1640; Table 2 head prints 24 h, method and FIG. 3A legend 72 hours. Here is the method: (§3) The cells were incubated with inhibitors for 24 hours, before the plates were equilibrated to room temperature and 100 μL CellTiter-Glo reagent was added. […] Luminescent signal was plotted against the inhibitor log-dose and evaluated by a non-linear regression to determine half-maximal effect concentration (EC50) values, where possible.
An MTS assay was utilized to assess the effect of inhibitors on K562 viability.

Assay [6] has as its system K562 cells. As to the kind of experiment: CellTiter-Glo cell viability assay in K562 cells (glucose-free media). The assay is classed as cell-based. Particulars: Homo sapiens, read-out: EC50 CellTiter Glo 24 h. Here is the method: as §3, §2
The mark [7] stands for this setting: mean±S.D. (n=3), ATP 8 μM, read-out: IC50 (nM) AMPK(α1).
[8] abbreviates: read-out: IC50 (nM) KDR, mean±S.D. (n=3), competitive binding.
Where [9] appears, read: read-out: EC50 CellTox Green 48 h, 48 h.
Where [10] appears, read: read-out: EC50 CellTox Green 24 h, 24 h.

Read-outs that look alike come from different tables or passages of the source.

Sequence of KDR (P35968 20-1356): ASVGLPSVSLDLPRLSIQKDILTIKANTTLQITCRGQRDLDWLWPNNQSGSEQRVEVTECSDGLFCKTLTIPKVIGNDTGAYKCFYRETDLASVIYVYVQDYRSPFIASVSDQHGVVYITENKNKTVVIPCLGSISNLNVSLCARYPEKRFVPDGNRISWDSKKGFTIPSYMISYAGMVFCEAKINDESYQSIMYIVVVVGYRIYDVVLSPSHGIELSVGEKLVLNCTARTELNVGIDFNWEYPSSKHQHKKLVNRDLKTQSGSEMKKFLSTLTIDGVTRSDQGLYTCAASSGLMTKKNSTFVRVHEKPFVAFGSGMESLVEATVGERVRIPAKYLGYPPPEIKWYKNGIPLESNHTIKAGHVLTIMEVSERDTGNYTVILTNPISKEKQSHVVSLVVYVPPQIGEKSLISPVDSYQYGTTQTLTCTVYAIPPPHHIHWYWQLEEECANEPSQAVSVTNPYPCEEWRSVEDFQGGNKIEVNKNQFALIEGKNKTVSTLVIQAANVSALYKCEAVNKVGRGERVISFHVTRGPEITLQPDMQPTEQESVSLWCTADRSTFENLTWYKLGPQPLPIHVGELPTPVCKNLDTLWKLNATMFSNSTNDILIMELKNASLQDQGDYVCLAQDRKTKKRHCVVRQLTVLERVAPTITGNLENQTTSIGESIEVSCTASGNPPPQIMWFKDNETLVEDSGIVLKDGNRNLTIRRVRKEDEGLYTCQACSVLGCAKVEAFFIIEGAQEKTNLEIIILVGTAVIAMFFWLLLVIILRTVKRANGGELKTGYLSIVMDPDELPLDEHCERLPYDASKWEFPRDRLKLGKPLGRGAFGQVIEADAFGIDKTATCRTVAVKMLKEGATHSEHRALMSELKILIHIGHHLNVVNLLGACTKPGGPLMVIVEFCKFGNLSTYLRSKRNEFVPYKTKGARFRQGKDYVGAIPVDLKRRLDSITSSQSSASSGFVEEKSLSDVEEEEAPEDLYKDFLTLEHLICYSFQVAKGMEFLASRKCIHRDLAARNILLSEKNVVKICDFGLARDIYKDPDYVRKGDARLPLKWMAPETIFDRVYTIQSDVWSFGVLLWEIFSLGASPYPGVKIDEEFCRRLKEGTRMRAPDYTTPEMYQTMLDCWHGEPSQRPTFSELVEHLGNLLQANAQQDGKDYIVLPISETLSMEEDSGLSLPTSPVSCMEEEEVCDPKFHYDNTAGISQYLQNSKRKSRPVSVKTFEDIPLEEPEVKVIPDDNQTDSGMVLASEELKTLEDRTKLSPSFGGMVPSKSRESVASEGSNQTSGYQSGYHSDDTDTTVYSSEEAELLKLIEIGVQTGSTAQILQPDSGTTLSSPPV
Sequence of AMPKα1 (Q13131 whole entry, looked up): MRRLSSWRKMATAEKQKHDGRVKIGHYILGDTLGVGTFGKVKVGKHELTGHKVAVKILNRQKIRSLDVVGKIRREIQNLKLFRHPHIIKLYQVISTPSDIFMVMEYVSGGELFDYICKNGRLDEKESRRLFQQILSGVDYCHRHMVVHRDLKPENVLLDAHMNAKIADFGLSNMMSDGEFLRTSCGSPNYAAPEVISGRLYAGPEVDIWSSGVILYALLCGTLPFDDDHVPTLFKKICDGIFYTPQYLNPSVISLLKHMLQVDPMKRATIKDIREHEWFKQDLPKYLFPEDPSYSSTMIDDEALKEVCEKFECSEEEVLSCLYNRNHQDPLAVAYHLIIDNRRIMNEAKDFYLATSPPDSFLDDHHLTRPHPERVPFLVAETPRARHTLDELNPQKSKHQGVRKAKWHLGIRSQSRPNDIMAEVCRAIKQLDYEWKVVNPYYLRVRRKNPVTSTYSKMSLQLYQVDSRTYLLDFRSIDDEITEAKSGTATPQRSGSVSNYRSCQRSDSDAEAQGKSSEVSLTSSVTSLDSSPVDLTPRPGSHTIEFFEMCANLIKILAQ
Sequence of AMPKα1 (Q9Y478 whole entry partner, looked up): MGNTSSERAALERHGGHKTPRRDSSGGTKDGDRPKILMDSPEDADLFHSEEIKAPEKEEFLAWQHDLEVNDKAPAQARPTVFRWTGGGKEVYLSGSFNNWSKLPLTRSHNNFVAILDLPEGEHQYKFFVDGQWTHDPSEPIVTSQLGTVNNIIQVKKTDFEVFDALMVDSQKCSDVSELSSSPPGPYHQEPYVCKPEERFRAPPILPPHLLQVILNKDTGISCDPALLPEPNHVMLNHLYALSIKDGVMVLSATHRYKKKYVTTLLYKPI
Sequence of AMPKα1 (P54619 whole entry partner, looked up): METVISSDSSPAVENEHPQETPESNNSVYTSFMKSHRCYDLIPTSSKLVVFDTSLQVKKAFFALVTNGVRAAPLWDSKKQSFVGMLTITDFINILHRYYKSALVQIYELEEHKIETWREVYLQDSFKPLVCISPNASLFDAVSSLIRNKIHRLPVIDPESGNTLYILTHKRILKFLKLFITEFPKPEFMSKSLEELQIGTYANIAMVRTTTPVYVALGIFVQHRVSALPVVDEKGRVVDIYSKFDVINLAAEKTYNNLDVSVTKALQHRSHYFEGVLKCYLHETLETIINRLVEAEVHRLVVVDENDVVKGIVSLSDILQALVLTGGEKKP
Sequence of AMPK(α2) (P54646 whole entry, looked up): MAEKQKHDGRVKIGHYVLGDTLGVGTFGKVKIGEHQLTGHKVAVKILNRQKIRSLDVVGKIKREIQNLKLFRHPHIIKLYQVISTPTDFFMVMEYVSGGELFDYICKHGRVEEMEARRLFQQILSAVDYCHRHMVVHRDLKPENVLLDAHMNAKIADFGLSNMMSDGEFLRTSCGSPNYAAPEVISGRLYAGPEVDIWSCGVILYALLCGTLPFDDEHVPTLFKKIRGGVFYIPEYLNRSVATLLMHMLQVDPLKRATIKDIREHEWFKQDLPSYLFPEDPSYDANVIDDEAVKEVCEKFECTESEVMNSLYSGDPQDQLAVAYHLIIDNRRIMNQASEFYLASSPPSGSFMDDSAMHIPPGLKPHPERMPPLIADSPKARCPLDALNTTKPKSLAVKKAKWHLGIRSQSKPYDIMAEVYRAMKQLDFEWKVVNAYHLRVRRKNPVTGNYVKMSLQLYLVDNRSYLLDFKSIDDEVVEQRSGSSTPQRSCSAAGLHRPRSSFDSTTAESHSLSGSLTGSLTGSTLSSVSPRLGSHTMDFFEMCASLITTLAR
Sequence of AMPK(α2) (Q9Y478 whole entry partner, looked up): as the sequence (Q9Y478 whole entry partner, looked up) above
Sequence of AMPK(α2) (P54619 whole entry partner, looked up): as the sequence (P54619 whole entry partner, looked up) above

Usually IC50 stands for the midpoint of a concentration-inhibition curve. As to `Cc1[nH]c(/C=C2\C(=O)Nc3ccc(F)cc32)c(C)c1C(=O)NCCN` [Compound No. 4, (Z)—N-(2-Aminoethyl)-5-((5-fluoro-2-oxoindolin-3-ylidene)methyl)-2,4-dimethyl-1H-pyrrole-3-carboxamide], the IC50 is 393 ± 27 nM in assay [1] (setting [7]) and 141 ± 33 nM in assay [2].

In general, EC50 refers to the midpoint of the concentration-response curve. For `Cc1[nH]c(/C=C2\C(=O)Nc3ccc(F)cc32)c(C)c1C(=O)NCCN(C)C` [Compound No. 5, (Z)—N-(2-(Dimethylamino)ethyl)-5-((5-fluoro-2-oxoindolin-3-ylidene)methyl)-2,4-dimethyl-1H-pyrrole-3-carboxamide], the IC50 in assay [3] (setting [8]) was 493 ± 24 nM; in assay [1] (setting [7]), 136 ± 16 nM; in assay [2] it was 50.4 ± 17.9 nM. The EC50 in assay [4] (setting [9]) stood at 13.03 ± 0.04 µM; in assay [5], 12.6 ± 0.93 µM.

Consider `CCNCCNC(=O)c1c(C)[nH]c(/C=C2\C(=O)Nc3ccc(F)cc32)c1C` [Compound No. 6], for which the IC50 in assay [3] (setting [8]) turned out to be 505 ± 18 nM; in assay [1] (setting [7]), 180 ± 24 nM; in assay [2], 61.4 ± 12.7 nM. In addition, the EC50 was 12.89 ± 0.11 µM in assay [4] (setting [10]), 11.9 ± 1.58 µM in assay [4] (setting [9]), 15.5 ± 0.48 µM in assay [6] and 13.6 ± 1.69 µM in assay [5].

Regarding `Cc1[nH]c(/C=C2\C(=O)Nc3ccc(F)cc32)c(C)c1C(=O)NCCCN(C)C` [Compound No. 7, (Z)—N-(3-(Dimethylamino)propyl)-5-((5-fluoro-2-oxoindolin-3-ylidene)methyl)-2,4-dimethyl-1H-pyrrole-3-carboxamide], the IC50 in assay [1] (setting [7]) stood at 221 ± 31 nM; in assay [2], 74.8 ± 3.1 nM.

For `CCN(CC)CCCNC(=O)c1c(C)[nH]c(/C=C2\C(=O)Nc3ccc(F)cc32)c1C` [Compound No. 8, (Z)—N-(3-(Diethylamino)propyl)-5-((5-fluoro-2-oxoindolin-3-ylidene)methyl)-2,4-dimethyl-1H-pyrrole-3-carboxamide], the IC50 is 480 ± 52 nM in assay [3] (setting [8]), 152 ± 22 nM in assay [1] (setting [7]) and 38.6 ± 10.6 nM in assay [2]. Moreover, the EC50 in assay [4] (setting [9]) turned out to be 13.27 ± 0.08 µM; in assay [6] it was 18 ± 0.32 µM; in assay [5] it was 13.5 ± 0.59 µM.

Turning to `CCN(CC)CCNC(=O)c1c(C)[nH]c(/C=C2\C(=O)Nc3ccc(CCOC)cc32)c1C` [Compound No. 9, (Z)—N-(2-(Diethylamino)ethyl)-5-((5-(2-methoxyethyl)-2-oxoindolin-3-ylidene)methyl)-2,4-dimethyl-1H-pyrrole-3-carboxamide], the IC50 in assay [1] (setting [7]) stood at 296 ± 16 nM; in assay [2], 96.6 ± 4.3 nM.

Turning to `CCN(CC)CCNC(=O)c1c(C)[nH]c(/C=C2\C(=O)Nc3ccc(CCOC(C)=O)cc32)c1C` [Compound No. 11, (Z)-2-(3-((4-((2-(Diethylamino)ethyl)carbamoyl)-3,5-dimethyl-1H-pyrrol-2-yl)methylene)-2-oxoindolin-5-yl)ethyl acetate], the values for the IC50 in assay [1] (setting [7]) and in assay [2] were 418 ± 45 nM and 111 ± 21 nM, respectively.

In the case of `CCN(CC)CCNC(=O)c1c(C)[nH]c(/C=C2\C(=O)Nc3ccc(CCN(C)C)cc32)c1C` [Compound No. 12, (Z)—N-(2-(Diethylamino)ethyl)-5-((5-(2-(dimethylamino)ethyl)-2-oxoindolin-3-ylidene)methyl)-2,4-dimethyl-1H-pyrrole-3-carboxamide], the IC50 in assay [1] (text value in μM, read-out: AMPKα1 IC50) worked out at 2100 ± 440 nM; in assay [2] it was 154 ± 53 nM.

Consider `CCN(CC)CCNC(=O)c1c(C)[nH]c(/C=C2\C(=O)Nc3ccc(CCN=[N+]=[N-])cc32)c1C` [Compound No. 13, (Z)-5-((5-(2-Azidoethyl)-2-oxoindolin-3-ylidene)methyl)-N-(2-(diethylamino)ethyl)-2,4-dimethyl-1H-pyrrole-3-carboxamide], for which the IC50 in assay [3] (read-out: KDR IC50, values in μM) turned out to be 2260 ± 110 nM; in assay [1] (setting [7]), 139 ± 13 nM; in assay [2] it was 101 ± 20 nM. Also, the EC50 was 4.81 ± 0.08 µM in assay [4] (setting [9]), 4.86 ± 0.16 µM in assay [6] and 3.83 ± 0.05 µM in assay [5].

As for `CCN(CC)CCNC(=O)c1c(C)[nH]c(/C=C2\C(=O)Nc3ccc(CCNC(C)=O)cc32)c1C` [Compound No. 14, (Z)-5-((5-(2-Acetamidoethyl)-2-oxoindolin-3-ylidene)methyl)-N-(2-(diethylamino)ethyl)-2,4-dimethyl-1H-pyrrole-3-carboxamide], the IC50 is 2160 ± 101 nM in assay [3] (setting [8]), 184 ± 11 nM in assay [1] (setting [7]) and 108 ± 17 nM in assay [2].

Take `CCN(CC)CCNC(=O)c1c(C)[nH]c(/C=C2\C(=O)Nc3ccc(C#N)cc32)c1C` [Compound No. 17, (Z)-5-((5-Cyano-2-oxoindolin-3-ylidene)methyl)-N-(2-(diethylamino)ethyl)-2,4-dimethyl-1H-pyrrole-3-carboxamide]: the IC50 in assay [3] (setting [8]) turned out to be 391 ± 22 nM; in assay [1] (setting [7]), 93 ± 8 nM; in assay [2] it was 16.2 ± 7.4 nM. For the same compound, the EC50 is 13.6 ± 0.35 µM in assay [4] (setting [9]) and 19.9 ± 1.21 µM in assay [6].

In the case of `CCN(CC)CCNC(=O)c1c(C)[nH]c(/C=C2\C(=O)Nc3ccc(CNC(N)=O)cc32)c1C` [Compound No. 18, (Z)—N-(2-(Diethylamino)ethyl)-2,4-dimethyl-5-((2-oxo-5-(ureidomethyl)indolin-3-ylidene)methyl)-1H-pyrrole-3-carboxamide], the IC50 in assay [1] (setting [7]) was found to be 205 ± 52 nM; in assay [2] it was 83.6 ± 7 nM.

Regarding `CCN(CC)CCNC(=O)c1c(C)[nH]c(/C=C2\C(=O)Nc3ccccc32)c1C` [Compound No. 19, (Z)—N-(2-(Diethylamino)ethyl)-2,4-dimethyl-5-((2-oxoindolin-3-ylidene)methyl)-1H-pyrrole-3-carboxamide], the IC50 in assay [1] (setting [7]) turned out to be 246 ± 11 nM; in assay [2], 88.5 ± 7.1 nM.

In the case of `CCN(CC)CCNC(=O)c1c(C)[nH]c(/C=C2\C(=O)Nc3cc(F)ccc32)c1C` [Compound No. 20, (Z)—N-(2-(Diethylamino)ethyl)-5-((6-fluoro-2-oxoindolin-3-ylidene)methyl)-2,4-dimethyl-1H-pyrrole-3-carboxamide], the figures for the IC50 in assay [3] (setting [8]), in assay [1] (setting [7]) and in assay [2] were 189 ± 7 nM, 240 ± 37 nM and 49.4 ± 22.1 nM, respectively. Further, the EC50 was found to be 7.15 ± 0.35 µM in assay [4] (setting [9]) and 2.85 ± 0.22 µM in assay [5].

Regarding `CCN(CC)CCNC(=O)c1c(C)[nH]c(/C=C2\C(=O)Nc3cc(Cl)ccc32)c1C` [Compound No. 21, (Z)-5-((6-Chloro-2-oxoindolin-3-ylidene)methyl)-N-(2-(diethylamino)ethyl)-2,4-dimethyl-1H-pyrrole-3-carboxamide], the figures for the IC50 in assay [3] (setting [8]), in assay [1] (setting [7]) and in assay [2] were 206 ± 7 nM, 217 ± 37 nM and 65.1 ± 12.3 nM, respectively. For the same compound, the EC50 in assay [4] (setting [10]) was 5.24 ± 0.22 µM; in assay [4] (setting [9]), 4.18 ± 0.41 µM; in assay [6] it was 3.83 ± 0.46 µM.

`CCN(CC)CCNC(=O)c1c(C)[nH]c(/C=C2\C(=O)Nc3cc(Br)ccc32)c1C` [Compound No. 22, (Z)-5-((6-Bromo-2-oxoindolin-3-ylidene)methyl)-N-(2-(diethylamino)ethyl)-2,4-dimethyl-1H-pyrrole-3-carboxamide]: the IC50 in assay [1] (setting [7]) is 208 ± 33 nM; in assay [2], 82.5 ± 27.9 nM.

With `CCc1ccc2c(c1)NC(=O)/C2=C\c1[nH]c(C)c(C(=O)NCCN(CC)CC)c1C` [Compound No. 24, (Z)—N-(2-(Diethylamino)ethyl)-5-((6-ethyl-2-oxoindolin-3-ylidene)methyl)-2,4-dimethyl-1H-pyrrole-3-carboxamide], the IC50 in assay [1] (setting [7]) was 348 ± 71 nM.

By inhibition is commonly meant the drop in the measured response relative to a control, in per cent. Turning to `CCN(CC)CCNC(=O)c1c(C)[nH]c(/C=C2\C(=O)Nc3cc(C(C)C)ccc32)c1C` [Compound No. 25, N-(2-(Diethylamino)ethyl)-5-((6-isopropyl-2-oxoindolin-3-ylidene)methyl)-2,4-dimethyl-1H-pyrrole-3-carboxamide], the inhibition at 20 µM in assay [1] (read-out: AMPK(α1) % inhibition at 20 μM) amounted to 70%.
